Measurements taken from patent US20230348369A1 (Cytokinetics, Inc., priority 2020, published 2023).
pEC50: −log10 of the molar value. Where two headings read alike, the source gives them in different places.

Target: human NAMPT (Homo sapiens, UniProt P43490)
Assay: Human recombinant enzyme assay (NMN fluorescence biochemical assay, activation of NAMPT)
Procedure: Compounds described herein were assayed for their ability to stimulate the synthesis of nicotinamide mononucleotide (NMN) by the enzyme NAMPT. The human recombinant enzyme assay measures the activation of the enzyme activity by compounds using recombinant enzyme and substrates in a buffered cell-free system. The assay conditions closely mimic cellular environments. Dose responses were measured using an assay to detect the formation of nicotinamide mono-nucleotide. All experiments were performed in the 384-well format. […] Enzyme reactions were initiated with the addition of 10 μL of a solution containing the substrates. The final assay conditions were as follows: 6 nM human NAMPT, 2.5 mM ATP, 20 μM PRPP and 150 μM nicotinamide in 50 mM HEPES, pH 7.2, 1 mM DTT, 1 mM CHAPS 50 mM NaCl, 100 mM MgCl2. Following an incubation of 60 min at ambient temperature, 10 μL of 20% acetophenone in DMSO was added, followed by 10 μL of 2 M KOH and 40 μL of formic acid. The plates were read for fluorescence (Excitation/Emission=355 nm/460 nm) using an EnVision plate reader after 40 mins of incubation at ambient temperature.

[1] = Table A, human recombinant NAMPT, NMN formation, 60 min, read-out: EC50 Human
[2] = Table A, human recombinant NAMPT, NMN formation, 60 min

human NAMPT, sequence (P43490 whole entry): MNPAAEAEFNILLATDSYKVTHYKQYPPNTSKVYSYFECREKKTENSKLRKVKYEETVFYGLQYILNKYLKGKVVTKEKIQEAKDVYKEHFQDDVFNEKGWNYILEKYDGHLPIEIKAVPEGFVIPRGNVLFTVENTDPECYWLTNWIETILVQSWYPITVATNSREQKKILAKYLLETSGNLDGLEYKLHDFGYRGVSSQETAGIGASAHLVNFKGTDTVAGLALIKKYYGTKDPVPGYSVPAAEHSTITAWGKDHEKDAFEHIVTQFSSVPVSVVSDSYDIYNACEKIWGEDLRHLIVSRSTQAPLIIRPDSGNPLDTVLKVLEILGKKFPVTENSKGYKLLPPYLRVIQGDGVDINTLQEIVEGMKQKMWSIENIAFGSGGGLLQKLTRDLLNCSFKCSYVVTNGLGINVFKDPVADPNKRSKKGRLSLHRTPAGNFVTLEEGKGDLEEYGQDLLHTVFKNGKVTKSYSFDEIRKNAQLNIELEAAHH

pEC50 [1] | AC1.4 Human [2] [µM] | SMILES | pEC50
5.29 | – | CC(C)(C)OC(=O)NC1CC2(CC(NC(=O)NCc3ccc(Cl)cc3)C2)C1 (racemic) [Compound 8] | –
– | – | CC(C)(O)CN1CCN(C(=O)[C@H]2C[C@]3(C[C@H](NC(=O)NCc4ccc(Cl)cc4)C3)C2)CC1 (single isomer, unassigned) [Compound 182] | 4.69
5.57 | 1.3 | COc1ccc(CNC(=O)NC2CC3(C2)CC(C(=O)NC2CCCc4ccc(F)cc42)C3)cc1 (stereo in doubt) [Compound 97, (S)-N-(7-fluoro-1,2,3,4-tetrahydronaphthalen-1-yl)-6-(3-(4-methoxybenzyl)ureido)spiro[3.3]heptane-2-carboxamide] | –
5.15 | 3.0 | COc1ccc(CNC(=O)NC2CC3(C2)CC(C(=O)NC2CCCc4cc(F)ccc42)C3)cc1 (stereo in doubt) [Compound 98, (S)-N-(6-fluoro-1,2,3,4-tetrahydronaphthalen-1-yl)-6-(3-(4-methoxybenzyl)ureido)spiro[3.3]heptane-2-carboxamide] | –
5.41 | 5.1 | COc1ccc(CNC(=O)NC2CC3(C2)CC(C(=O)NC2CCCc4ccc(F)cc42)C3)cc1 (stereo in doubt) [Compound 99, (R)-N-(7-fluoro-1,2,3,4-tetrahydronaphthalen-1-yl)-6-(3-(4-methoxybenzyl)ureido)spiro[3.3]heptane-2-carboxamide] | –
4.99 | 8.5 | COc1ccc(CNC(=O)NC2CC3(C2)CC(C(=O)NC2CCCc4ccccc42)C3)cc1 (stereo in doubt) [Compound 100, (R)-6-(3-(4-methoxybenzyl)ureido)-N-(1,2,3,4-tetrahydronaphthalen-1-yl)spiro[3.3]heptane-2-carboxamide] | –
6.10 | 0.1 | O=C(NCCCCC1CCN(C(=O)c2ccccc2)CC1)NCc1ccncc1 [Compound 1, 1-(4-(1-benzoylpiperidin-4-yl)butyl)-3-(pyridin-4-ylmethyl)urea] | –
4.59 | – | CC(C)(C)OC(=O)NC1CC2(CC(NC(=O)NCc3ccc(C(N)=O)cc3)C2)C1 (stereo not drawn) [Compound 2, tert-butyl (6-(3-(4-carbamoylbenzyl)ureido)spiro[3.3]heptan-2-yl)carbamate] | –
4.38 | 17.5 | CC1(C)CCC(NC(=O)NCc2ccc(C(N)=O)cc2)CC1 [Compound 3, 4-((3-(4,4-dimethylcyclohexyl)ureido)methyl)benzamide] | –
– | 9.9 | NC(=O)c1ccc(CNC(=O)NC2CC(c3ccccc3)C2)cc1 (stereo not drawn) [Compound 4, 4-((3-(3-phenylcyclobutyl)ureido)methyl)benzamide] | –
4.31 | – | CC(C)(C)OC(=O)N1CCC(NC(=O)NCc2ccc(C(N)=O)cc2)CC1 [Compound 5, tert-butyl 4-(3-(4-carbamoylbenzyl)ureido)piperidine-1-carboxylate] | –
4.57 | 4.5 | CC(C)(C)OC(=O)NC1CC2(CC(NC(=O)NCc3ccncc3)C2)C1 (stereo not drawn) [Compound 6, tert-butyl (6-(3-(pyridin-4-ylmethyl)ureido)spiro[3.3]heptan-2-yl)carbamate] | –
4.33 | 3.4 | CC(C)(C)OC(=O)NC1CC2(CC(NC(=O)NCc3ccc(CO)cc3)C2)C1 (stereo not drawn) [Compound 9, tert-butyl (6-(3-(4-(hydroxymethyl)benzyl)ureido)spiro[3.3]heptan-2-yl)carbamate] | –
4.29 | 5.8 | CC(C)(C)OC(=O)NC1CC2(CC(NC(=O)NCc3cn[nH]c3)C2)C1 (stereo not drawn) [Compound 10, tert-butyl (6-(3-((1H-pyrazol-4-yl)methyl)ureido)spiro[3.3]heptan-2-yl)carbamate] | –
– | 11.5 | CC(C)(C)OC(=O)NC1CC2(CC(NC(=O)NCc3cnco3)C2)C1 (stereo not drawn) [Compound 11, tert-butyl (6-(3-(oxazol-5-ylmethyl)ureido)spiro[3.3]heptan-2-yl)carbamate] | –
4.40 | – | CC(C)(C)OC(=O)NC1CCC(NC(=O)NCc2ccc(C(N)=O)cc2)CC1 (stereo not drawn) [Compound 12, tert-butyl (4-(3-(4-carbamoylbenzyl)ureido)cyclohexyl)carbamate] | –
– | 17.5 | NC(=O)c1ccc(CNC(=O)NC2CCN(C(=O)c3ccccc3)CC2)cc1 [Compound 13, 4-((3-(1-benzoylpiperidin-4-yl)ureido)methyl)benzamide] | –
4.75 | 10.4 | O=C(NCc1ccncc1)NC1CC2(C1)CC(NC(=O)c1ccccc1)C2 (stereo not drawn) [Compound 15, N-(6-(3-(pyridin-4-ylmethyl)ureido)spiro[3.3]heptan-2-yl)benzamide] | –
4.30 | 17.6 | O=C(NCc1cn[nH]c1)NC1CC2(C1)CC(NC(=O)c1ccccc1)C2 (stereo not drawn) [Compound 17, N-(6-(3-((1H-pyrazol-4-yl)methyl)ureido)spiro[3.3]heptan-2-yl)benzamide] | –
4.22 | 18.9 | COc1ccc(CNC(=O)NC2CC3(C2)CC(NC(=O)c2ccccc2)C3)cc1 (stereo not drawn) [Compound 18, N-(6-(3-(4-methoxybenzyl)ureido)spiro[3.3]heptan-2-yl)benzamide] | –
4.35 | 8.0 | NC(=O)c1ccc(CNC(=O)N[C@H]2C[C@H](C(=O)NCc3ccccc3)C2)cc1 [Compound 21, 4-((3-((1r,3r)-3-(benzylcarbamoyl)cyclobutyl)ureido)methyl)benzamide] | –
4.56 | 5.0 | CC(C)(C)OC(=O)N1CCC2(CC1)CC2CNC(=O)NCc1ccncc1 (stereo not drawn) [Compound 25, tert-butyl 1-((3-(pyridin-4-ylmethyl)ureido)methyl)-6-azaspiro[2.5]octane-6-carboxylate] | –
4.37 | – | COc1ccc(CNC(=O)NCC2CC23CCN(C(=O)OC(C)(C)C)CC3)cc1 (stereo not drawn) [Compound 28, tert-butyl 1-((3-(4-methoxybenzyl)ureido)methyl)-6-azaspiro[2.5]octane-6-carboxylate] | –
4.42 | – | CC(C)(C)OC(=O)N1CCC2(CC1)CC2CNC(=O)NCc1cnco1 (stereo not drawn) [Compound 30, tert-butyl 1-((3-(oxazol-5-ylmethyl)ureido)methyl)-6-azaspiro[2.5]octane-6-carboxylate] | –
4.40 | 3.2 | CC(C)(C)OC(=O)N1CCC2(CC1)CC2CNC(=O)NCc1cn[nH]c1 (stereo not drawn) [Compound 31, tert-butyl 1-((3-((1H-pyrazol-4-yl)methyl)ureido)methyl)-6-azaspiro[2.5]octane-6-carboxylate] | –
4.42 | 12.1 | NC(=O)c1ccc(CNC(=O)NC2CC3(CC(NCc4ccccn4)C3)C2)cc1 (stereo not drawn) [Compound 34, 4-((3-(6-((pyridin-2-ylmethyl)amino)spiro[3.3]heptan-2-yl)ureido)methyl)benzamide] | –

SMILES | pEC50 [1] | AC1.4 Human [2] [µM] | pEC50
COC(=O)[C@H]1C[C@@]2(C[C@H](NC(=O)NCc3ccc(Cl)cc3)C2)C1 (single isomer, unassigned) [Compound 201, methyl 6-(3-(4-chlorobenzyl)ureido)spiro[3.3]heptane-2-carboxylate] | – | 6.7 | 4.65
NC(=O)c1ccc(CNC(=O)NC2CC3(CC(NCc4ccccc4)C3)C2)cc1 (stereo not drawn) [Compound 24] | 4.54 | 8.1 | –
NC(=O)c1ccc(CNC(=O)NC2CC3(C2)CC(Nc2ccccn2)C3)cc1 (stereo not drawn) [Compound 26, 4-((3-(6-(pyridin-2-ylamino)spiro[3.3]heptan-2-yl)ureido)methyl)benzamide] | – | 2.0 | 4.78
